# Data as given in paper PMC3003687, “α-Galactosylceramide Analogs with Weak Agonist Activity for Human iNKT Cells Define New Candidate Anti-Inflammatory Agents” (PLoS ONE, 2010).
# Assays:
# human iNKT cell clones = assay: Cytokine ELISA of human iNKT cell clones stimulated with glycolipid-pulsed CD1d-transfected HeLa cells; format: cell-based; conditions: for dose inducing the lowest activation state (IL-13 and GM-CSF secretion): CD1d-transfected Hela cells and dendritic cells as APCs; for iNKT cell clone cytokine response / agonist activity: dose range, IFNγ, IL-4, IL-13, clones HDD3, HDD11, HDE3, HDA7
# Procedure: Capture ELISA assays were used for measurement of cytokine responses of human iNKT cells to αGalCer analogs. One day prior to the experiment, CD1d transfected HeLa cells were plated at 25×10^3 cells/well in 100 µL of medium in flat-bottom 96 well plates. Glycolipids were then added in 100 µL of medium to give final concentrations ranging from 0.05 to 10^4 nM. The APCs were incubated for approximately 18 hours with the glycolipids and then irradiated (10,000 Rad) and washed twice with PBS prior to addition of 25×10^3 iNKT cells well in 300 µL. Supernatants were harvested after 24 hours of co-culture and stored frozen at -20°C. After thawing, aliquots of the supernatants were assayed for specific cytokines by ELISA using capture and biotin-labeled detection antibody pairs specific for GM-CSF, IL-2, IL-4, IL-12p70 and IL-13 (all obtained from BD Biosciences), IFNγ (Thermo-Scientific) or IL-18 (MBL). Specific signals were developed using HRP- conjugated streptavidin (BD Biosciences) and Turbo TMB substrate (Thermo-Scientific). Supernatants were tested pure and/or diluted to give values within a quantitative linear standard curve generated with recombinant cytokines. Curves of dose-dependent cytokine responses and graphs were plotted using the Graphpad Prism Software. EC50 values were calculated using the function log (agonist) response with variable slope, and statistical analyses were carried out using the same software. To calculate concentration-dependent cytokine ratios, IL-4/IFNγ and IL-13/IFNγ ratios were calculated using cytokine values from which background levels (i.e. levels in cultures receiving DMSO vehicle alone) were subtracted. Ratios were calculated by dividing IL-4 or IL-13 concentrations in pg/mL by IFNγ concentration in ng/mL.
# [1] = test system: human iNKT cells and NK cells; assay: In vitro transactivation assay (CFSE-labeled iNKT cells co-cultured with PBMC); format: cell-based; conditions: for IL-12 levels in supernatants / IL-13 levels in supernatants / IL-18 levels in supernatants / global IFNγ production in supernatants: 24 h, ELISA
# Procedure: iNKT cells were stained for 5 minutes with 1–20 µM of CFSE (Molecular probes) and 5% FCS in PBS and washed twice. As a positive control, a fraction of CFSE-labeled iNKT cells were preactivated for 30 minutes with 1 µg/mL of PMA and 250 ng/mL of Ionomycin (Sigma-Aldrich) in culture medium and extensively washed. The experiment was initiated by adding CFSE-labeled unstimulated or PMA/Ionomycin-preactivated iNKT cells to freshly prepared PBMC pulsed with vehicle or αGalCer analogs at the indicated concentrations and at an iNKT/PBMC ratio of 1/10 or 1/40. Supernatants and cells were harvested from parallel conditions after the indicated time of co-culture. For intracellular cytokine staining, brefeldin A (Golgiplug, BD Biosciences) was added 4 h before harvesting the cells, which were fixed with 1% paraformaldehyde and permeabilized with 0.1% saponin (Sigma-Aldrich) prior to mAb staining. Experiments with blocking antibodies were performed with 10 µg/mL of preservative-free mAbs, including isotype matched control, anti-IL-2, anti-IL-12, anti-IFNγ and anti-CD40L (all from BD Biosciences) or anti-IL-18 (MBL). For detection of CD40L expression by iNKT cells, co-cultures of iNKT and PBMC were prepared as above, except that monensin (Golgistop, BD Biosciences) and fluorescent CD40L specific mAb (1/10 or 1/20 final dilution) were added at the beginning of the experiment, as previously described.
# Figure 6 A novel in vitro “transactivation assay” to assess the ability of human iNKT cells to activate other leukocytes. (A) Format for analysis of transactivation of bystander leukocytes. Flow cytometric analysis was carried out for culture containing iNKT cells co-cultured for 24 hours with fresh human PBMC at a 1/10 ratio. For the intracellular detection of IFNγ, Brefeldin A was added for the last 4 hours. Representative electronic gating is shown for the discrimination of CFSE-labeled iNKT cells, B cells, T cells, and NK cells to measure IFNγ expression (or CD69 expression, not shown). Filled black histograms show staining with vehicle control and are overlaid with open gray histograms for stimulation with 100 nM of KRN7000. (B) Dose-dependent IFNγ and CD40L expression by iNKT cells (top and middle graph, respectively) and IFNγ production by transactivated NK cells (bottom graph), after 24 h of co-culture of CFSE-labeled iNKT cells and PBMCs at a 1/10 ratios and the indicated concentration of either KRN7000 (black filled circles) or the adamantanoyl (AD) analog (open circles). Data are presented for a CD4^+ clone (HDD3), and similar results (not shown) were obtained with a DN clone (HDE3). (C) Effect of specific blockade of various cytokines and CD40L on the activation of iNKT cells and transactivated NK cells. CFSE-labeled iNKT cells and PBMCs were co-cultured at a 1/40 ratio for the indicated time, in the presence of KRN7000 at 25 nM and 10 µg/mL of isotype matched control or specific blocking antibodies as indicated. Average percentages of IFNγ^+ iNKT cells and NK cells, assessed by intracellular staining at 24, 48 and 66 hours, are indicated in the left and right plots, respectively.
# Figure 7 Comparison of αGalCer analogs for their ability to induce NK cell transactivation. (A) iNKT cell clones were co-cultured for 24 hours with fresh human PBMC at a 1/10 ratio with 100 nM of the indicated analogs, and Brefeldin A was added for the last 4 hours. The percentages of IFNγ^+ iNKT cells (open bars) and IFNγ^+ NK cells (filled bars) are indicated. Cytokine levels were assessed by ELISA in supernatants from identical conditions in absence of Brefeldin A treatment: (B) IFNγ levels (open bars) and IL-13 levels (filled bars); the detection limit was 82.3 ng/mL for both cytokines. (C) IL-12 levels (open bars) and IL-18 levels (filled bars); the detection limit was 27.4 ng/mL. Results obtained with a CD4^+ clone (HDD3) are presented, and similar data (not shown) were obtained with a DN clone (HDE3).
# [2] = CD1d-transfected HeLa APC, 24 h co-culture, ELISA
"EC50 (human iNKT cell clones; Homo sapiens, iNKT, HDD3 clone, IL-4 levels did not reach a plateau) [µM]",Structure (SMILES),dose inducing the lowest activation state (IL-13 and GM-CSF secretion) (human iNKT cell clones) [nM],iNKT cell clone cytokine response / agonist activity (human iNKT cell clones),IL-12 levels in supernatants ([1]; 100 nM),IL-13 levels in supernatants ([1]; 100 nM),IL-18 levels in supernatants ([1]; 100 nM),global IFNγ production in supernatants ([1]; 100 nM),concentration at which IL-13 production was induced (human iNKT cell clones; [2]) [nM],concentration reaching maximal IL-13 production (human iNKT cell clones; [2]),"higher concentration required for IFNγ to be induced and reach plateau, relative to IL-13 (human iNKT cell clones; [2])","concentration saturating IL-4 production (human iNKT cell clones; CD1d-transfected HeLa APC, data not shown)","IFNγ production in bystander leukocytes (intracellular staining) ([1]; 100 nM, iNKT/PBMC 1/10)",CD69 induction in bystander leukocytes upon iNKT cell stimulation ([1]; not shown)
,CCCCC/C=C\C/C=C\CCCCCCCCCC(=O)N[C@@H](CO[C@H]1O[C@H](CO)[C@H](O)[C@H](O)[C@H]1O)[C@H](O)[C@H](O)CCCCCCCCCCCCCC [C20:2],< 1,strong agonist activity,detectable IL-12 generation,high IL-13 levels,enhanced IL-18 levels compared to vehicle control,high global production of IFNγ,,,,,,
> 10,CCCCC/C=C\C/C=C\C/C=C\C/C=C\CCCC(=O)N[C@@H](CO[C@H]1O[C@H](CO)[C@H](O)[C@H](O)[C@H]1O)[C@H](O)[C@H](O)CCCCCCCCCCCCCC [C20:4],,substantially lower iNKT cell response,detectable IL-12 generation,high IL-13 levels,enhanced IL-18 levels compared to vehicle control,high global production of IFNγ,,,,,,
,"CCCCCCCCCCCCCCCCCCCCCCCCCC(=O)N[C@@H](CO[C@H]1O[C@H](CO)[C@H](O)[C@H](O)[C@H]1O)[C@H](O)[C@H](O)CCCCCCCCCCCCCC [KRN7000, reference compound]",< 1,strong agonist activity,,,,,≤ 0.1,approximately 1 nM,approximately 1 log,very high KRN7000 concentrations in the µM range,"detectable at 24 h in NK cells, but not in T cells or B cells","nearly all B cells and NK cells, but not T cells, became CD69^+"
